Common to all, as to format: biochemical
Assay [1] addresses T1, 320 wild-type protein kinases (Homo sapiens, UniProt O94806).
T1 sequence (O94806 1-890): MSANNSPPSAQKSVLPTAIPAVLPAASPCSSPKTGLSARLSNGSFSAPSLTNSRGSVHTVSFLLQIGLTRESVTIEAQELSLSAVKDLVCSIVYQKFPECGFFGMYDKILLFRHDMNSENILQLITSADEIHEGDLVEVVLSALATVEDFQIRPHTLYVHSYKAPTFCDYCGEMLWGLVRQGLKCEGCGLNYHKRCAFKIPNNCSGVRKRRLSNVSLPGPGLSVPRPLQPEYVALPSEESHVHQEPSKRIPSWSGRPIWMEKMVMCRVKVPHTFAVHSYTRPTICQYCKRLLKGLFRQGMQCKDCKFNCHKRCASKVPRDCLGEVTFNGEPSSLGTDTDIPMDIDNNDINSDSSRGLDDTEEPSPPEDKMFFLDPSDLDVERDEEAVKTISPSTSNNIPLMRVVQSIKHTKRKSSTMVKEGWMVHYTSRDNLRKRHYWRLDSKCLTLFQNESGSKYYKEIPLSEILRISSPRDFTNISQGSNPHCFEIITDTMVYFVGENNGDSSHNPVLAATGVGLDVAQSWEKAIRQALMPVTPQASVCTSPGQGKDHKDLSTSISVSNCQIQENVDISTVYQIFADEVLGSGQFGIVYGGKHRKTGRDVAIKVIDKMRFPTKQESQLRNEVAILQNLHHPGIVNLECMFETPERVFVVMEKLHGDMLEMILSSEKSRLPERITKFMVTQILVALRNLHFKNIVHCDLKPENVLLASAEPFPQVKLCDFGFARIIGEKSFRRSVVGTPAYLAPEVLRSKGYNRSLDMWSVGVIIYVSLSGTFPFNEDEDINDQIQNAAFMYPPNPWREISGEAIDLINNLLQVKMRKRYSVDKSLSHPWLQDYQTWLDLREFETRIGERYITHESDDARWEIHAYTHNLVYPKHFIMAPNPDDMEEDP
The conditions noted are these: PKC-nu, singlicate. An excerpt: (§1) Table S4. Profiling of two compounds at two concentrations against 320 wild-type protein kinases; singlicate measurement; Residual activities (% of control).

The target of assay [2] is T2, 320 wild-type protein kinases (Homo sapiens, UniProt Q9NZJ5).
T2 sequence (Q9NZJ5 30-1116): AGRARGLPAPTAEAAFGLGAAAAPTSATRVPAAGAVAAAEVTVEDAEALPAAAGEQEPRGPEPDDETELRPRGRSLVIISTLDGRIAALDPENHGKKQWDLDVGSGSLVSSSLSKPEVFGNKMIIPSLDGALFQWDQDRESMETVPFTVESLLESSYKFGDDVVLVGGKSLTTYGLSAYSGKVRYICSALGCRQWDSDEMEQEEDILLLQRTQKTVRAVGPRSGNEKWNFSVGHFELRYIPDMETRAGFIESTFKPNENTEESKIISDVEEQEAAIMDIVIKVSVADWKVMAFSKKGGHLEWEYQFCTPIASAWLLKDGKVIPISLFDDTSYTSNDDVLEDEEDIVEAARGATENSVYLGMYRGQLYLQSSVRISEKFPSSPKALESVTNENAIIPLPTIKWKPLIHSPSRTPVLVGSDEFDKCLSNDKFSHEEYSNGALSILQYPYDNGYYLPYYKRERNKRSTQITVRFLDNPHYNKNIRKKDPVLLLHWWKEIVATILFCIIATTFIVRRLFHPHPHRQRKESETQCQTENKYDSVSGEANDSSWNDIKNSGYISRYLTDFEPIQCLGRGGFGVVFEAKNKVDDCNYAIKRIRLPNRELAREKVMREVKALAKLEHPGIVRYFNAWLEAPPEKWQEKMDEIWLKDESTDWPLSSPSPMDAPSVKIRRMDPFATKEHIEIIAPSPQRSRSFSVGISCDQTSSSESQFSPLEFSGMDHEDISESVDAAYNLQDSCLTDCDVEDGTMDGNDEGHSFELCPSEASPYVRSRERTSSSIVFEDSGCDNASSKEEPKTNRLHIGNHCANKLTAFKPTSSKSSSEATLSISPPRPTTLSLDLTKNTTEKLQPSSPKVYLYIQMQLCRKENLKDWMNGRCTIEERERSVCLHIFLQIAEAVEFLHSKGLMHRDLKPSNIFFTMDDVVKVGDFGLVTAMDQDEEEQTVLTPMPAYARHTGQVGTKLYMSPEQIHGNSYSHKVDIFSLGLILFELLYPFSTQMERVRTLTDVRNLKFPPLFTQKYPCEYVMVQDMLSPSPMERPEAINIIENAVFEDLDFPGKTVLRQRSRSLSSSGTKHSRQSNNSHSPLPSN
The settings on record: singlicate.
From the text: as §1

Assay [3] deals with 320 wild-type protein kinases (Homo sapiens, UniProt P27448). The conditions noted are these: singlicate.
From the text: as §1

Assay [4] addresses 320 wild-type protein kinases (Homo sapiens, UniProt Q9H0K1). The conditions noted are these: kinase SIK2, singlicate.
From the text: as §1

Assay [5] deals with T3, 320 wild-type protein kinases (Homo sapiens, UniProt O15264).
T3 sequence (O15264 1-365): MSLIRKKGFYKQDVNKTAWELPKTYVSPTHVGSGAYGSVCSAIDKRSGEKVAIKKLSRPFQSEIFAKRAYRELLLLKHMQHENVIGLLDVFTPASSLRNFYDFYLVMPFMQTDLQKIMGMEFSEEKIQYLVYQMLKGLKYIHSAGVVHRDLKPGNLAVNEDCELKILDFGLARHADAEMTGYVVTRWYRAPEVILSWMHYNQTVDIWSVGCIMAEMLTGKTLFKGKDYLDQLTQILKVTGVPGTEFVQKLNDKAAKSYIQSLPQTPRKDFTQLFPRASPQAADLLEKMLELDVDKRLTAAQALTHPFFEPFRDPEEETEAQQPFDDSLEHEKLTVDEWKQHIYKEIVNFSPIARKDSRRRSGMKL
The settings on record: p38-delta, singlicate.
From the text: as §1

Assay [6] deals with 320 wild-type protein kinases (Homo sapiens, UniProt Q04912). The conditions noted are these: kinase RON, singlicate.
From the text: as §1

The target of assay [7] is 320 wild-type protein kinases (Homo sapiens, UniProt P24723). The conditions noted are these: PKC-eta, singlicate.
From the text: as §1

Where two headings read alike, the source gives them in different places.

Sequence of 320 wild-type protein kinases (Homo sapiens, UniProt P24723) (P24723 whole entry): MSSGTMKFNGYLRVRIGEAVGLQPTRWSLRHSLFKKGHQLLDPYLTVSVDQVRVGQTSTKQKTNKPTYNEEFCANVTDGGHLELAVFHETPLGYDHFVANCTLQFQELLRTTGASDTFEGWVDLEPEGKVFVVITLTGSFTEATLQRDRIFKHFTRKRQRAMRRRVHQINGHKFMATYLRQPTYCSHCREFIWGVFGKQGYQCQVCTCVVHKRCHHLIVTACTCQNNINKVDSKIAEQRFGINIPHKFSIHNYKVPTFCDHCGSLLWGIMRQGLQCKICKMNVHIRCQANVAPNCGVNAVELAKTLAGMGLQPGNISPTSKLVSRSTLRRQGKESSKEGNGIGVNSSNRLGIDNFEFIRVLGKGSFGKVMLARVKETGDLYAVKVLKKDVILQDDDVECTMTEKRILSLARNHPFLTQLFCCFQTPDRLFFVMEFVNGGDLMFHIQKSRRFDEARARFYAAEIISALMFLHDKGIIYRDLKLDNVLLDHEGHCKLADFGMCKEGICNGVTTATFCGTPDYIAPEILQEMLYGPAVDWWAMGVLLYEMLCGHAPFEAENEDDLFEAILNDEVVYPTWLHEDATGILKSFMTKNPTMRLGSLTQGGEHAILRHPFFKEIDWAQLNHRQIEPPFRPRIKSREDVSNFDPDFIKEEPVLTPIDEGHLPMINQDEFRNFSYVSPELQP
Sequence of 320 wild-type protein kinases (Homo sapiens, UniProt Q04912) (Q04912 25-1400): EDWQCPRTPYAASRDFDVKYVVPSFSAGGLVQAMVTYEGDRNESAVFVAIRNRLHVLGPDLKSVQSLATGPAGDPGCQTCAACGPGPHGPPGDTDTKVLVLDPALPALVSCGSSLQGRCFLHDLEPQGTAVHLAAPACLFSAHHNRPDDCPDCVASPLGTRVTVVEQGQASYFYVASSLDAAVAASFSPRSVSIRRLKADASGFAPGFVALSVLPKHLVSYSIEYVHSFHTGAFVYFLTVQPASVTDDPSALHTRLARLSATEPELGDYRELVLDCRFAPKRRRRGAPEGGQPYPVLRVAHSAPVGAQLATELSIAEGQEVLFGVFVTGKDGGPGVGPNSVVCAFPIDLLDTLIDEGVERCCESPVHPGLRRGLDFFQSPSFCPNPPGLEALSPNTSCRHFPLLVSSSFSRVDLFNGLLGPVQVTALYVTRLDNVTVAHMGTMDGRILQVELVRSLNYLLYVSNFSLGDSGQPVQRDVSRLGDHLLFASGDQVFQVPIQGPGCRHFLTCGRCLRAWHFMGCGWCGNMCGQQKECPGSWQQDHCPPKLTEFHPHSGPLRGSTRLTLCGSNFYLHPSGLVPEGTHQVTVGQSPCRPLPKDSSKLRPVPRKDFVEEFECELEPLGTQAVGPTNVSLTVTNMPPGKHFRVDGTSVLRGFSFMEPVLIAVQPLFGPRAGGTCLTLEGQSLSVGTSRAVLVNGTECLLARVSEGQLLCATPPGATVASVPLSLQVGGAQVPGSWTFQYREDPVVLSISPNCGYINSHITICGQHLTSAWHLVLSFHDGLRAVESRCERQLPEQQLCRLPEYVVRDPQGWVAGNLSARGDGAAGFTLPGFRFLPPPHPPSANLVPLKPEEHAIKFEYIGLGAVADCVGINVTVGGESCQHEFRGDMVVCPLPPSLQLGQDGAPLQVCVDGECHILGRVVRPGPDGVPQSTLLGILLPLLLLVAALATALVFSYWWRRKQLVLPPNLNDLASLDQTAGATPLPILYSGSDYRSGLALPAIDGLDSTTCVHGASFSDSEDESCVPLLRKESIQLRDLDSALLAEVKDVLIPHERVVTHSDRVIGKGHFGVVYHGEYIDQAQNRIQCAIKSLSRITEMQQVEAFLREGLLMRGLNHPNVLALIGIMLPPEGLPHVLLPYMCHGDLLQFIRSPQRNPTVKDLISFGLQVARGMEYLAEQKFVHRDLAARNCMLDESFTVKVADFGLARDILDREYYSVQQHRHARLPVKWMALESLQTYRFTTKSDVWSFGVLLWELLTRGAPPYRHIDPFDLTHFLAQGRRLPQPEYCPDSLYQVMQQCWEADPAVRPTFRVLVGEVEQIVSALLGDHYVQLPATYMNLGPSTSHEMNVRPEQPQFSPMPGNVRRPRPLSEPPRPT
Sequence of 320 wild-type protein kinases (Homo sapiens, UniProt Q9H0K1) (Q9H0K1 whole entry): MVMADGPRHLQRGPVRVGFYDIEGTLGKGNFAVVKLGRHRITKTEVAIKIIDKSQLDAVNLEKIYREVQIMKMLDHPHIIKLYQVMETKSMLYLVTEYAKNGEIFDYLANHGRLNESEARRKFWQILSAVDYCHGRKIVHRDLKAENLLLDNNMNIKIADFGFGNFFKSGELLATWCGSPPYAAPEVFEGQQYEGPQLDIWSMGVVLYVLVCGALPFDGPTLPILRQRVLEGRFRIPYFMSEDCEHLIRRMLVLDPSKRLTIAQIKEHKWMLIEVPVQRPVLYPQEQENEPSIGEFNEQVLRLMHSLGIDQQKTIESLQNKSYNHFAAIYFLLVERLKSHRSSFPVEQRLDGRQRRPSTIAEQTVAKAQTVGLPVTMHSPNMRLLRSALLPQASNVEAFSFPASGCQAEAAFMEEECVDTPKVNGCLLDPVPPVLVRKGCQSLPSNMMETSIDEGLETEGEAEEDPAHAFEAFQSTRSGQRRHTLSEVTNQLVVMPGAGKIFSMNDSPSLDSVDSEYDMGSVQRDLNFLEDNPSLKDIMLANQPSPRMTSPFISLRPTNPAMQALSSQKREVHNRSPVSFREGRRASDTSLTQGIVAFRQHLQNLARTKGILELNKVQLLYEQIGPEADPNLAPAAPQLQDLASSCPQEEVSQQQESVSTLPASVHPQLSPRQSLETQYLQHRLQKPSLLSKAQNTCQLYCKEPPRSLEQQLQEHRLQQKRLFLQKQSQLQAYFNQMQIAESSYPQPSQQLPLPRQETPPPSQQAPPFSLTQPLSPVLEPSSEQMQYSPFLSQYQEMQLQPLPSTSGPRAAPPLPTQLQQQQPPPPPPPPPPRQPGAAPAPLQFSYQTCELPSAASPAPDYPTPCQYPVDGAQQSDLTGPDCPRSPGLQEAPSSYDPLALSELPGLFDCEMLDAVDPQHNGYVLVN
Sequence of 320 wild-type protein kinases (Homo sapiens, UniProt P27448) (P27448 whole entry): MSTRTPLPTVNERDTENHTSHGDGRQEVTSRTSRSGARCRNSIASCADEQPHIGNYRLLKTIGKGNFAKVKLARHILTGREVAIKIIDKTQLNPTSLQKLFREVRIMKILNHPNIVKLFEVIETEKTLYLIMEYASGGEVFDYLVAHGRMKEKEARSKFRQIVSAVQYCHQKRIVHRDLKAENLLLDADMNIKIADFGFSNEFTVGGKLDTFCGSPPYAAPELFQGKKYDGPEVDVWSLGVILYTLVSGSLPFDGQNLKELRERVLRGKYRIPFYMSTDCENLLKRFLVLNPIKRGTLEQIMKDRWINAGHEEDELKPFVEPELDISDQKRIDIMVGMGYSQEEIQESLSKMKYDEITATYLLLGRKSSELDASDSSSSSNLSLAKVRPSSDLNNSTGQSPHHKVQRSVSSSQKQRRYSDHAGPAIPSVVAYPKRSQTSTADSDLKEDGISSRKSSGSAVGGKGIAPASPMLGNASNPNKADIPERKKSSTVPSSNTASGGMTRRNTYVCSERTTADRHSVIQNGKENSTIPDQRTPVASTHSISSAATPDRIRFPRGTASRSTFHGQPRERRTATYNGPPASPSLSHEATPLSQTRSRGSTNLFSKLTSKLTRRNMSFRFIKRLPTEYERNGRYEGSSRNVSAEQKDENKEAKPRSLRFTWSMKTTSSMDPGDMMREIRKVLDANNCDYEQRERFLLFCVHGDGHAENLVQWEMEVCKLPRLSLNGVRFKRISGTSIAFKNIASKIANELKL

Regarding `C#Cc1cc(Nc2ncnc3cc(I)ccc23)ccc1Cl` [Compound 41], the Residual activity in assay [1] (1.0E-06 M) was 86 % of control; in assay [1] (1.0E-07 M), 87 % of control; in assay [2] (EIF2AK3, 1.0E-06 M) it was 95 % of control; in assay [2] (EIF2AK3, 1.0E-07 M), 86 % of control; in assay [3] (MARK3, 1.0E-06 M), 95 % of control; in assay [3] (MARK3, 1.0E-07 M) it was 97 % of control. In addition, the Residual activity in assay [5] (1.0E-06 M) was 94 % of control; in assay [5] (1.0E-07 M), 112 % of control; in assay [7] (1.0E-06 M), 91 % of control; in assay [7] (1.0E-07 M) it was 93 % of control. Moreover, the “Residual activity, SIK2” value in assay [4] (assay conc. 1.0E-06 M) is listed as 83 % of control; in assay [4] (assay conc. 1.0E-07 M) it was 92 % of control. Also, the “Residual activity, RON” value in assay [6] (assay conc. 1.0E-06 M) was 63 % of control; in assay [6] (assay conc. 1.0E-07 M), 77 % of control.
`C#Cc1cc(Nc2ncnc3cc(OC)c(OC)cc23)ccc1Cl` [Compound 45]: the Residual activity was 84 % of control in assay [1] (1.0E-06 M); 99 % of control in assay [1] (1.0E-07 M); 82 % of control in assay [2] (EIF2AK3, 1.0E-06 M); 90 % of control in assay [2] (EIF2AK3, 1.0E-07 M); 100 % of control in assay [3] (MARK3, 1.0E-06 M); 96 % of control in assay [3] (MARK3, 1.0E-07 M). Also, the Residual activity was 94 % of control in assay [5] (1.0E-06 M), 111 % of control in assay [5] (1.0E-07 M), 75 % of control in assay [7] (1.0E-06 M) and 90 % of control in assay [7] (1.0E-07 M). The “Residual activity, SIK2” value is recorded as 67 % of control in assay [4] (assay conc. 1.0E-06 M) and 97 % of control in assay [4] (assay conc. 1.0E-07 M). Moreover, the “Residual activity, RON” value in assay [6] (assay conc. 1.0E-06 M) is 82 % of control; in assay [6] (assay conc. 1.0E-07 M), 90 % of control.
